Measured values taken from article PMC6443832, “Designing and Characterization of a Novel Delivery System for Improved Cellular Uptake by Brain Using Dendronised Apo-E-Derived Peptide” (Frontiers in Bioengineering and Biotechnology, 2019).

Columns and labels:
bEnd.3 cells [1] = experiment: LDH release cytotoxicity assay; conditions: confluent bEnd.3 cells; concentrations up to 400 μM; 24 and 48 h; absorbance 492 nm; relative to complete lysis control (100% lysis); mean of n = 6
Description: The bEnd.3 cells were cultured, according to ATCC-product sheet instruction, in DMEM high glucose medium with L-pyruvate, containing 10 % (v/v) fetal bovine serum and 1% (v/v) of 500 U/ml Penicillin/Streptomycin (Gibco, Germany). Cells were seeded at a density of 5 × 10^4 cells per cm^2 in 24-well plates then incubated at 37°C and 5% CO2 and the culture media was replaced every 3 days.
Experiments were performed when cells reached confluence. A range of concentrations (25, 50, 100, 150, 200, 300, and 400 μM) of each AMT-competent G0-, G1-dendron, and RMT-competent AEP-dendron were used in each experiment.
Lactate dehydrogenase (LDH) was measured using Promega CytoTox96® non-radioactive cytotoxicity assay kit (UK) after 24 and 48 h incubation. Absorbance was read spectrophotometrically at 492 nm and converted to a percentage of the total LDH released from the positive control (cells subjected to complete lysis) for 6 replicates.

bEnd.3 cells [2] = experiment: Cellular uptake by flow cytometry; conditions: FITC-labeled carrier in DMEM; confluent bEnd.3 cells; 1 h incubation; flow cytometry FL1-H channel; in comparison to negative control (untreated cells)
Description: The bEnd.3 cells were cultured and treated at confluence with 100 μL FITC-labeled products dissolved in DMEM for 1 h. The cells were washed with phosphate buffer solution twice and trypsinised and then harvested to be analyzed using BD C6 sampler flow cytometer (BD Accuri C6, Bioscience, UK). Samples of cells without treatment were also included as a control, and the analysis was carried out through the FL1-H channel for FITC detection.

bEnd.3 cells [3] = experiment: Cellular uptake by laser scanning confocal microscopy (LSCM); conditions: FITC-labeled; confluent bEnd.3 cells; 1 h treatment; formalin-fixed; LSCM 488 laser; qualitative, versus untreated control cells
Description: The bEnd.3 cells were treated at confluence with FITC-labeled products dissolved in DMEM and incubated for 1 h (the appropriate incubation time for dendrons with this type of cell line). The cells were then fixed with 3.7% (v/v) formalin, and analyzed by LSCM (Leica TCS SP5, UK), using a 488-visible laser source.

| Compound | cell membrane lysis (LDH release) as % of positive control (bEnd.3 cells [1]) [%] | cellular uptake (bEnd.3 cells [2]) [%] | cellular uptake (green fluorescence inside the cells) (bEnd.3 cells [3]) |
| --- | --- | --- | --- |
| H-KLRKLRKRLLR-NH2 (C-terminus assumed) [AEP-dendron] | < 10 | 90.7 | – |
| NCCCC[C@H](N)C(=O)N[C@@H](Cc1ccccc1)C(N)=O [G0-dendron] | < 10 | 38.7 | successful cellular uptake |
| O=C1OC2(c3ccc(O)cc3Oc3cc(O)ccc32)c2ccc(N=C=S)cc21 [FITC, fluorescein-5-isothiocyanate, reference compound] | – | – | negative results |
